Assays:
[1] = biological target: T1, CO dehydrogenase (FAD site on CoxM) (Afipia carboxidovorans, UniProt P19920); assay: spectrophotometric FAD determination at […] nm after trichloroacetic acid precipitation; type: binding; settings: wild-type enzyme from CO-grown cells; co-purified cofactor
T1 construct: native enzyme purified from wild-type O. carboxidovorans OM5; same complex as P1, as isolated with [CuSMoO2] cluster; with Carbon monoxide dehydrogenase large chain; Carbon monoxide dehydrogenase small chain
T1 sequence (P19920 1-288): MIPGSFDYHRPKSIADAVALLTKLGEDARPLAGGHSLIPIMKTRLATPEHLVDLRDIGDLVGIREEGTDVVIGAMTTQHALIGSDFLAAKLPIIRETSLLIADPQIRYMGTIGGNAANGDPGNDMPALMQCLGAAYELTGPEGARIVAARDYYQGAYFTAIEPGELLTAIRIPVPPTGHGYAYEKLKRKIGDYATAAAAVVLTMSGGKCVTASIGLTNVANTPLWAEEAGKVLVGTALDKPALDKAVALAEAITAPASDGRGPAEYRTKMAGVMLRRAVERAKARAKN
T1 sequence (P19919 1-809 partner): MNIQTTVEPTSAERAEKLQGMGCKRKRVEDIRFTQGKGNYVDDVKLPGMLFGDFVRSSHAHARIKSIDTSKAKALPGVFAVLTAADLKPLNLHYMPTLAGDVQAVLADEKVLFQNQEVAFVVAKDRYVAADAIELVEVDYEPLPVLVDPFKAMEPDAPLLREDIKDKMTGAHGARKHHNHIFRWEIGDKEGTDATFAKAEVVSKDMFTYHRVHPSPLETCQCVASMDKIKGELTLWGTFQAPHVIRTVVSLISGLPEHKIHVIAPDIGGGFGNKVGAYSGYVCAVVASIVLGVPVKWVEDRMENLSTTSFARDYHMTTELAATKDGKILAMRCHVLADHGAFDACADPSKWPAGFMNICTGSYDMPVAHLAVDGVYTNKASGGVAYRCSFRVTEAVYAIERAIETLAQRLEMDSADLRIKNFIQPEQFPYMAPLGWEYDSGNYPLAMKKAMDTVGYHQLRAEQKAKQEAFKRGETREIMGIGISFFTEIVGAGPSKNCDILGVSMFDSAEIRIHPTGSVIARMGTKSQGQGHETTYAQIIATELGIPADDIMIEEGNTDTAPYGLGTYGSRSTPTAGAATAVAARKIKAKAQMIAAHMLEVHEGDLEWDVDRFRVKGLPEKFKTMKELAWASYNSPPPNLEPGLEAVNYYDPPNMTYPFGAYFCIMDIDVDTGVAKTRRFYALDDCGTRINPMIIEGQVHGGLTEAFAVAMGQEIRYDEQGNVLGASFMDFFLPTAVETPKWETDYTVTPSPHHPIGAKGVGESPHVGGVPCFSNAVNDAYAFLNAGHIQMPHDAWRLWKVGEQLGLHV
T1 sequence (P19921 1-166 partner): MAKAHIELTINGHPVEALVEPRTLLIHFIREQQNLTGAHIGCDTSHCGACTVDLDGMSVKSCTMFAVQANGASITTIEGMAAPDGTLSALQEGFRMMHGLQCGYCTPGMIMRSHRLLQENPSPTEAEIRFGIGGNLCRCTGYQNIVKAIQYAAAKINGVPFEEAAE

[2] = biological target: T1, CO dehydrogenase (FAD site on CoxM); assay: photometric assay of CO oxidation with INT as electron acceptor; type: biochemical; settings: electron acceptor with CO as electron donor, 30 °C; acceptor site (FAD) not shown in the paper
[3] = biological target: T2, CO dehydrogenase (molybdenum site on CoxL) (Afipia carboxidovorans, UniProt P19919); assay: Mo(V) EPR at […] K; type: binding; settings: 15 mM ligand, 50 mM HEPES pH 7.2, N2, 25 min room temperature; resulfurated copper-free [MoO2S] enzyme; covalent (mixed disulfide at Mo-bound sulfur)
T2 construct: native enzyme purified from O. carboxidovorans OM5; Mo-, Fe-S- and FAD-containing; Cu and sulfane sulfur removed by KCN, then resulfurated to the [MoO2S] form (copper-free); with Carbon monoxide dehydrogenase medium chain; Carbon monoxide dehydrogenase small chain
T2 sequence (P19919 1-809): T1 sequence (P19919 1-809 partner)
T2 sequence (P19921 1-166 partner): T1 sequence (P19921 1-166 partner)
T2 sequence (P19920 1-288 partner): T1 sequence (P19920 1-288)

For `Cc1cc2nc3c(=O)[nH]c(=O)nc-3n(C[C@H](O)[C@H](O)[C@H](O)COP(=O)(O)OP(=O)(O)OC[C@H]3O[C@@H](n4cnc5c(N)ncnc54)[C@H](O)[C@@H]3O)c2cc1C` [FAD], the “Wild type (CO)” value [1] was 1.93 ± 0.08 mol per mol.

In the case of `O=[N+]([O-])c1ccc(-[n+]2nc(-c3ccccc3)nn2-c2ccc(I)cc2)cc1` [INT, 1-phenyl-2-(4-iodo-phenyl)-3-(4-nitrophenyl)-2H-tetrazolium chloride], the “photometric assay of CO oxidation with INT as electron acceptor” value [2] is reported as “CO-oxidizing activity was assayed photometrically employing INT”.

For `N[C@@H](CS)C(=O)O` [L-cysteine], the “Mo(V) EPR at 120 K” value [3] was “SH group of the studied sulfur compounds can bind to the equatorial sulfur of [MoO2S]”.
